Experiment: xn = mol fraction of the nth substance listed
Conditions: 100 kPa

CN1CCCC1=O + CCCCCCCCn1cc[n+](C)c1.[Cl-]
x1 = 1
Conditions	viscosity [mPa·s]
288.15 K	1.989
298.15 K	1.679
303.15 K	1.556
308.15 K	1.441
313.15 K	1.323
323.15 K	1.148
328.15 K	1.065
333.15 K	1.029

CN1CCN(C)C1=O + CCCCCCCCn1cc[n+](C)c1.[Cl-]
viscosity [mPa·s]
Conditions	288.15 K	293.15 K	298.15 K	303.15 K	308.15 K	313.15 K	318.15 K	323.15 K	328.15 K	333.15 K
x2 = 0	2.368	2.139	1.945	1.76	1.616	1.491	1.381	1.28	1.195	1.117
x2 = 0.105	7.99	6.88	5.98	5.25	4.64	4.14	3.72	3.36	–	2.78
x2 = 0.2056	29.6	24	19.66	–	14	11.99	10.25	8.93	7.84	6.92
x2 = 0.3018	–	67.9	53.2	42.4	34.3	28.2	23.45	19.75	16.69	14.54
x2 = 0.3991	217	–	118.5	90.5	70.8	56.4	45.7	37.5	–	26.3
x2 = 0.4964	–	420	295	–	170.9	–	–	–	63.2	51.6
x2 = 0.6016	1500	990	669	467	335	245	196	149.3	116	91.4
x2 = 0.7007	–	1973	1290	874	608	431	315	251	191	–
x2 = 0.7994	–	–	2473	1632	–	–	551	404	301	229

CN1CCCC1=O + CCCCCC[n+]1ccn(C)c1.[Cl-]
x1 = 1
Conditions	viscosity [mPa·s]
288.15 K	1.989
293.15 K	1.853
298.15 K	1.679
303.15 K	1.556
308.15 K	1.441
313.15 K	1.323
318.15 K	1.259
323.15 K	1.148
328.15 K	1.065
333.15 K	1.029

CN1CCN(C)C1=O + CCCCCC[n+]1ccn(C)c1.[Cl-]
viscosity [mPa·s]
Conditions	288.15 K	293.15 K	298.15 K	303.15 K	308.15 K	313.15 K	318.15 K	323.15 K	328.15 K	333.15 K
x2 = 0	–	2.139	1.945	1.76	–	1.491	1.381	1.28	–	1.117
x2 = 0.1007	–	5.49	4.82	4.26	3.8	3.41	3.08	–	2.55	2.337
x2 = 0.1999	18.72	15.59	13.12	–	–	7.42	6.47	5.7	5.07	4.54
x2 = 0.2985	49.9	39.2	31.2	25.4	20.72	17.34	14.87	–	11.09	–
x2 = 0.3856	124.2	92.5	71.6	55.9	–	35.7	29.2	24.3	20.29	17.2
x2 = 0.4985	301	214	155.5	116.4	88.9	69.2	54.9	–	37.1	29.9
x2 = 0.6069	707	477	332	241	185	138.5	106.2	82.7	64.8	52.5
x2 = 0.6969	1575	1029	694	478	338	246	–	137.9	106.7	83.8
x2 = 0.7981	–	2308	1473	978	666	468	335	247	184	141.2

CCCCCCCCn1cc[n+](C)c1.[Cl-] + CN1CCCC1=O
viscosity [mPa·s]
Conditions	288.15 K	293.15 K	298.15 K	303.15 K	308.15 K	313.15 K	318.15 K	323.15 K	328.15 K	333.15 K
x2 = 0.21	–	2103	1299	878	619	442	–	–	–	137.7
x2 = 0.3221	1176	–	–	384	279	208	156.4	120.6	94.4	76.3
x2 = 0.43	560	390	279	207	154.3	117.6	91.2	72	57.7	46.7
x2 = 0.5321	204	149.8	112.3	86.1	67.1	53.3	–	35.6	29.5	24.9
x2 = 0.6343	86	66.1	51.9	41.4	33.5	27.6	22.98	19	16.2	14.09
x2 = 0.7195	32.3	26.2	21.09	17.68	–	12.7	10.97	9.55	8.38	7.41
x2 = 0.8143	12.78	10.86	9.32	8.08	7.07	6.24	–	–	4.46	4.04
x2 = 0.9085	5.24	4.63	4.13	3.71	–	3.05	2.79	2.57	2.377	2.211

CCCCCC[n+]1ccn(C)c1.[Cl-] + CN1CCCC1=O
viscosity [mPa·s]
Conditions	288.15 K	293.15 K	298.15 K	303.15 K	308.15 K	313.15 K	318.15 K	323.15 K	328.15 K	333.15 K
x2 = 0.2211	2552	1609	–	699	–	342	247	186	140.1	109.4
x2 = 0.3181	1037	687	–	329	239	176	132.3	–	79.8	63.8
x2 = 0.4223	406	–	207	–	115.1	87.7	68.5	–	–	36.7
x2 = 0.5271	167.3	123.1	–	71.4	55.9	45.3	36.7	30.2	25.1	21.19
x2 = 0.6327	63.8	49.7	39.4	31.7	26	–	17.7	15.13	13.09	11.35
x2 = 0.718	29.2	23.7	–	16.08	–	–	10.04	8.75	–	6.77
x2 = 0.8139	11.44	9.86	–	7.37	–	5.71	5.08	4.55	4.07	3.68
x2 = 0.9083	4.69	4.16	3.72	3.35	3.04	–	2.55	2.353	2.185	–

Source: a compilation of properties of binary mixtures (doi:10.1080/00986445.2015.1114477)
